Data set [1] concerns Male Wistar rats. Briefly: Chronic mild stress (CMS) model, consumption of 1% sucrose solution. The conditions noted are these: for consumption of sucrose solution one week after withdrawal from treatment: all drug-treated groups, control and stressed, stress continued; for consumption of sucrose solution in control animals / sucrose intake in stressed animals (treatment effect): 5 weeks. Format: in vivo, rat. The protocol: (§1) Male Wistar rats were brought into the laboratory 2 months before the start of the experiment, at which time they weighed approx. 300 g. Except as described below, all animals were singly housed, with food and water freely available, and maintained on a 12-hour light/dark. The animals were first trained to consume a 1% sucrose solution. Training consisted of nine 1-hour baseline tests in which sucrose was presented in pre-weighed bottles, in the home cage, and, following 14 hours food and water deprivation; the sucrose intake was measured by weighing the pre-weighed bottles at the end of the test. Subsequently, sucrose consumption was monitored, under similar conditions, at weekly intervals throughout the whole experiment.
(§2) On the basis of their sucrose intakes in the final baseline test, the animals were divided into two matched groups. One group of animals was subjected to a chronic mild stress (“CMS”) procedure for a period of 9 consecutive weeks. Each week of stress regime consisted of: two periods of food or water deprivation, two periods of 45 degree cage tilt, two periods of intermittent illumination (lights on and off every 2 hours), two periods of soiled cage (250 ml water in sawdust bedding), two periods of paired housing, two periods of low intensity stroboscopic illumination, and two periods of no stress. All stressors were of 10–14 hours duration and were applied individually and continuously, day and night. Control animals were housed in a separate room and had no contact with the stressed animals. They were deprived of food and water for the 14 hours preceding each sucrose test, but otherwise food and water were freely available in the home cage. […] After five weeks, all treatments were terminated and after one week of withdrawal a final sucrose test was carried out. Stress was continued throughout the period of treatment and withdrawal.
Chronic mild stress causes a gradual decrease in the consumption of 1% sucrose solution. In the final baseline test, all animals drank approximately 12 g of sucrose solution. Following initial three weeks of stress, intakes remained at the same level in control animals but fell to 7.5 (±0.3) g in stressed animals. Such a difference between control and stressed animals treated with vehicle, persisted at similar level for the remainder of the experiment [Group effect: F(1,98)=67.256; P<0.001].

A short description of data set [2]: Body weights, behaviour and withdrawal signs in the CMS study. Format: in vivo, rat. The conditions noted are these: for effect of chronic treatment on body weights: 5 weeks, imipramine 10 mg/kg i.p., AGN 2979 bisulphate 1, 4, 16 mg/kg p.o.; for signs of withdrawal after cessation of treatment: stressed or control animals, one week after cessation. As to the method: as §1, §2

The nature of data set [3]: Effect of AGN 2979 bisulphate on rat weight (0.36% in diet). The settings on record: after initial period of 3 or 4 days, about 230 mg/kg. Type of data set: in vivo, Male Spraque-Dawley rats. The protocol:
4 Male Spraque-Dawley rats were fed with their standard laboratory diet to which had been added 0.36% AGN 2979 bisulphate for a period of 9 days and their weight monitored on a daily basis and compared with 2 control rats receiving the standard laboratory diet without the bisulphate. For a rat weighing 360 g and consuming 23 g of the diet, the amount of AGN 2979 bisulphate consumed was about 230 mg/kg. The results are shown in Table 1 below, in which the bisulphate is identified as “AGN 2979 BS”. […] In particular, the test rats lost or merely maintained their body weight. The weight gains after an initial 3 day period for the two control rats and for test rats 3 and 6 are shown graphically in FIG. 1 and the weight gains for all 6 rats after an initial 4 day period are shown in FIG. 2.

The test system of data set [4] is subject. The data set is described as follows: Single subject with obstructive sleep apnoea, oral maintenance treatment. Type of data set: in vivo, human. The protocol:
A subject, height 178 cm and weighing 90 kilograms having had persistent awakening episodes of obstructive sleep apnoea (manifested by nocturnal choking) had been treated for several years with AGN 2979 hydrochloride, initially at a daily oral dose level of 120 mg and subsequently at a single oral maintenance dose of 120 mg every 4 days. […] The patient also reports that previous regular bouts of seasickness have been not recurred since treatment with AGN 2979 bisulphate.

In data set [5] the test system is tryptophan hydroxylase. The conditions noted are these: no method or data given; cited from earlier work.
For data set [6] the following is noted: cited from earlier work.
The test system of data set [7] is human patients. The conditions noted are these: cited from earlier work; for treatment of anxiety and depression: about 4 mg/kg/day (200–400 mg/day for human patients).
For data set [8], the system named is Male Wistar rats. The settings on record: earlier studies, cited from earlier work.
The mark [9] stands for this setting: stressed animals, 4 mg/kg p.o. daily.
Setting [10] is: single oral maintenance dose of 65 mg every two days, one subject.
Where [11] appears, read: stressed animals, imipramine 10 mg/kg i.p. daily.

Results on 5 compounds are retold here after US7189742B2, “Piperidin-2,6-dione bisulphate salts and their use for the treatment of stress related affective disorders” (Prestwick Pharmaceuticals, Inc., priority 2001, dated 2007).

Counter-ions that a name gives are not always drawn. Like-named read-outs stand apart in the source and are kept apart here.

In the case of `COc1cccc(C2(CCCN(C)C)C(=O)NC(=O)CC2(C)C)c1` (stereo not shown) [AGN 2979 bisulphate, 3(3-methoxyphenyl)-3-(3-dimethylaminopropyl)-4,4-dimethyl-piperidine-2,6-dione bisulphate], in data set [1], the “consumption of sucrose solution one week after withdrawal from treatment” value was “comparable to that observed in Week 5 of treatment”. Besides, the “consumption of sucrose solution in control animals” value in data set [1] (any of three doses 1, 4 and 16 mg/kg p.o. daily) was “not changed”. In addition, the “activity against stress-induced deficit in sucrose consumption” value (“activity against stress-induced deficit” for short) in data set [1] (stressed animals, 1 mg/kg p.o. daily) is reported as “ineffective”. In data set [1] (setting [9]), the “activity against stress-induced deficit” value is “active”, the “onset of significant increase of sucrose intake” value was “within the first week of treatment” and the “sucrose solution drunk at end of treatment (Week 5) versus vehicle-treated controls” value was “comparable to that of vehicle-treated controls”. The “activity against stress-induced deficit” value in data set [1] (stressed animals, 16 mg/kg p.o. daily) is listed as “ineffective”. Moreover, the “sucrose intake in stressed animals (treatment effect)” value in data set [1] (stressed animals, 1, 4 and 16 mg/kg p.o. daily, overall) is “gradual increase of sucrose intake”. In addition, the behavioural impairments result in data set [2] (16 mg/kg p.o., control and stressed animals, disappeared at end of third week) is “sedation, hypoactivity (but not catalepsy) and hyporeactivity to handling and drug injections”. For the same compound, the “effect of chronic treatment on body weights” value in data set [2] (control and stressed animals) was “no significant effect on body weights”. For the same compound, the “signs of withdrawal after cessation of treatment” value in data set [2] is given as “no signs of withdrawal were observed”. The “weight gain of test rats versus control rats” value in data set [3] is recorded as “the same as that of the control rats”. In addition, in data set [4] (administration suspended, one subject), the “nocturnal choking after suspension of administration” value is given as “returned after three weeks”. Further, the bouts of seasickness result in data set [4] (patient report, since treatment) was “not recurred”. Also, in data set [4] (setting [10]), the “awakening episodes of obstructive sleep apnoea” value is on record as “continued absence of awakening episodes” and the side effects entry is “no side effects”. The “activation of tryptophan hydroxylase by metabolic inhibitors (guanidine, sodium cyanide)” value in data set [5] is “blocked”.
Turning to `COc1cccc(C2(CCCN(C)C)C(=O)NC(=O)CC2(C)C)c1` (stereo not shown) [AGN 2979 hydrochloride, 3(3-methoxyphenyl)-3-(3-dimethylaminopropyl)-4,4-dimethylpiperidine-2,6-dione], the post-mortem examination finding result in data set [6] (200 mg/kg/day p.o., rats, 1 year, not detected by routine transaminase determinations) is reported as “hepatocyte changes”. Further, the weight loss in data set [6] (200 mg/kg/day p.o., rats, over the 1-year period) was 40%. Also, the “weight of test rats compared with control rats” value in data set [6] (200 mg/kg, previous experiments) was “continuing weight disparity (loss)”. Further, the “anxiolytic properties at FDA permitted dose” value in data set [7] (1 mg b.i.d. (about 30 μg/kg/day), clinical study by Cutler et al) is “only marginally effective anxiolytic properties”. Besides, the “treatment of anxiety and depression” value is reported as “effective in alleviating depression” in data set [7] and “effective” in data set [7] (listed as hydrochloride salt of AGN 2979). Besides, the “adverse effects following discontinuation of chronic administration” value in data set [7] (previous clinical observations) is “does not cause any adverse effects following discontinuation”.
For `CN(C)CCC=C1c2ccccc2CCc2ccccc21` [amitriptyline], the “efficacy against CMS-induced anhedonia when doses increased above threshold active ones” value in data set [8] is “not more effective”.
With `O=C1CC2(CCCC2)CC(=O)N1CCCCN1CCN(c2ncccn2)CC1` [buspirone], the “efficacy against CMS-induced anhedonia when doses increased above threshold active ones” value in data set [8] is reported as “not more effective”.
`CN(C)CCCN1c2ccccc2CCc2ccccc21` [imipramine]: the “consumption of sucrose solution one week after withdrawal from treatment” value in data set [1] is “comparable to that observed in Week 5 of treatment”. In addition, the “consumption of sucrose solution in control animals” value in data set [1] (imipramine 10 mg/kg i.p. daily) is recorded as “not changed”. Besides, in data set [1] (setting [11]), the “onset of significant increase of sucrose intake” value is on record as “after three weeks of treatment”; the “sucrose intake after five weeks of treatment versus vehicle-treated control animals” value is “no significant differences between drug-treated stressed and vehicle-treated control animals”; the “sucrose intake in stressed animals (treatment effect)” value is given as “gradual increase of sucrose intake”. Moreover, in data set [2] (control and stressed animals), the “effect of chronic treatment on body weights” value was “no significant effect on body weights”. In data set [2], the “signs of withdrawal after cessation of treatment” value is recorded as “no signs of withdrawal were observed”. Besides, in data set [8] (imipramine 20 mg/kg per day), the “effects in CMS model at higher dose (magnitude and time-course)” value is listed as “caused similar effects”.
